The source of these data is patent publication US10383956B2, “Fluorescent probe for detecting dipeptidyl peptidase IV” (The University of Tokyo, priority 2014, dated 2019).

A short description of data set [1]: Absorption and fluorescence spectra of probe and HMRG. The class given is physicochemical. An excerpt: The absorption spectra and fluorescence spectra of compound 1 (GP-HRMG) having a glycine-proline dipeptide site synthesized in Example 1 and hydroxymethyl rhodamine green (HRMG) not having a dipeptide site were each measured.
Data set [2] deals with human esophageal squamous cell carcinoma cells (KYSE30, KYSE270, KYSE140, KYSE520, KYSE150, KYSE 1170). The data set is described as follows: Live cell imaging in cultured esophageal cancer cells. It is filed as cell-based. Conditions: FIG. 5. The method, then: Imaging was conducted over time after adding GP-HMRG (compound 1) to six types of human esophageal squamous cell carcinoma cells.
As human esophageal squamous cell carcinoma cells, two highly differentiated types (KYSE30, KYSE270), two moderately differentiated types (KYSE140, KYSE520), and two lowly differentiated types (KYSE150, KYSE 1170) were cultured for two days at 37° C., 5% CO2 using a μ-Slide 8 well.

The target of data set [3] is DPP-IV (Homo sapiens, UniProt P27487). The data set is described as follows: DPP-IV assay by fluorescent probe (absorption/fluorescence change, HPLC). It is filed as biochemical. How it is done:
Next, DPP-IV was caused to act on compound 1, and the changes in the absorption spectrum and fluorescence spectrum were measured. The results are shown in FIG. 1 (the concentration of compound 1 was 3.5 μM).
Similarly, DPP-IV was caused to act on compound 1, and analysis was conducted by HPLC chromatography.
In addition to compound 1, fluorescence assays were conducted on compounds 2-6 synthesized in the same way in Example 1. For the solution conditions, a solution comprising 18 μL of solution comprising a fluorescent probe concentration of 1.1 μM and 20 mM Tris HCl buffer (pH 7.1), and 2 μL of solution comprising DPP-IV and 20 mM Tris HCl buffer was used. The results obtained by adding DPP-IV to each solution containing a fluorescent probe and measuring the increase in the fluorescence intensity are shown in FIGS. 3 and 4 (excitation wavelength 501 nm, fluorescence wavelength 524 nm). FIG. 3 is a graph snowing the fluorescence intensity increase rate six minutes after DPP-IV addition; FIG. 4 is a graph plotting the time dependence of the fluorescence intensity.

Data set [4] relates to human esophageal cancer surgical specimens and ESD specimens. The data set is described as follows: Imaging of human esophageal surgical specimens and ESD specimens. To be noted: surgical specimen; probe 50 μM with DPP-IV inhibitor, adhered five minutes; FIG. 10. The method, then:
Esophageal specimens from patients who underwent surgery and endoscopic submucosal dissection (ESD) for esophageal cancer were brought immediately after removal in each treatment (meaning surgical specimens and ESD specimens, respectively) to an imaging room, and imaging was conducted over time after spraying the specimens directly with various fluorescent probes (compounds 1-6). For surgical specimens, 10 μL of a DMSO solution (10 mM) of the various fluorescent probes was dissolved in 2 mL of RPMI 1640 (phenol red-free) (final probe concentration 50 μM), and imaging was conducted using a Maestro In Vivo Imaging System Ex after spraying the fluorescent probe on the specimen using a spray tube for an endoscope. For ESD specimens, 3 μL of a DMSO solution (10 mM) of the various fluorescent probes was dissolved in 600 μL of RPMI 1640 (phenol red-free) (final probe concentration 50 μM), and imaging was conducted using a Maestro In Vivo Imaging System Ex after adding the fluorescent probe dropwise to the specimen.
Specifically, gauze impregnated with 5 μL of a DMSO solution (10 mM) of EP-HMRG (compound 2) dissolved in 1 mL of RPMI 1640 (phenol red-free) (final probe concentration 50 μM) and gauze impregnated with 5 μL of a DMSO solution (10 mM) of EP-HMRG (compound 2) and 5 μL of a DPP-IV inhibitor (10 mM) dissolved in 1 mL of RPMI 1640 (phenol red-free) were used. […]

Chain of DPP-IV (P27487 whole entry, species assumed): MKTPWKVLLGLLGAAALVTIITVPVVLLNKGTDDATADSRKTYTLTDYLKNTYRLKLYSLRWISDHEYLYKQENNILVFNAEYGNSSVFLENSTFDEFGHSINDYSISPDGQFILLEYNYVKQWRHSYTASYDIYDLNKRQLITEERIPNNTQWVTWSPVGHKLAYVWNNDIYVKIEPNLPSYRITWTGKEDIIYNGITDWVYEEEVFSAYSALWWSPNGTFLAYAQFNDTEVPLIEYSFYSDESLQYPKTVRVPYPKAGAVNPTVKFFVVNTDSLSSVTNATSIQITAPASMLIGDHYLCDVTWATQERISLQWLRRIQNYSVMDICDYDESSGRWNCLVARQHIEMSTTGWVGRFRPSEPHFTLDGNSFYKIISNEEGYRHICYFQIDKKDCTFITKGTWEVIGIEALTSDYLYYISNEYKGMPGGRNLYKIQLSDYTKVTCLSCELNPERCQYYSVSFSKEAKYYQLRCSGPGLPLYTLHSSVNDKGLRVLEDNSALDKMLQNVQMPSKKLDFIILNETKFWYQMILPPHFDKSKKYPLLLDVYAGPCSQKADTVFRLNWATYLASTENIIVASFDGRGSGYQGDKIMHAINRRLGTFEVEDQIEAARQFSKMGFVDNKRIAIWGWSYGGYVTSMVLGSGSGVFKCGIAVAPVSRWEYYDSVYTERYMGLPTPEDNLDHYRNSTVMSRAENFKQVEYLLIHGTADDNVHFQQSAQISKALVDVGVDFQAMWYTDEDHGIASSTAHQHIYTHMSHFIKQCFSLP

As to `NCC(=O)N1CCC[C@H]1C(=O)Nc1ccc2c(c1)Oc1cc(N)ccc1C21OCc2ccccc21` (stereo partly drawn) [Compound 1], in data set [1], the Maximum absorption wavelength amounted to 496 nm, the Maximum fluorescence wavelength turned out to be 527 nm, the pKcycl was found to be 5.0 and the “Molar extinction coefficient at pH 7.4” value is 300 M^−1cm^−1. The “Structure form under neutral conditions” value in data set [1] (neutral conditions) was “present mainly in a colorless, non-fluorescent, closed-ring structure”. Besides, in data set [2] (probe 5 μM + 100 μM DPP-IV inhibitor, 60 minutes), the “Fluorescence intensity in live cells with DPP-IV inhibitor added” value is reported as “fluorescence intensity was lower with the probe with inhibitor added”. Besides, the “Fluorescence intensity in live cells over time” value in data set [2] (probe 10 μM, observed 60 minutes, six cell lines) is reported as “increase in fluorescence intensity was seen over time in all of the cells”. Moreover, the “HPLC analysis after reaction with DPP-IV” value in data set [3] (FIG. 2) is “hydrolyzed and cleaved by DPP-IV”. In addition, the “Change in absorption and fluorescence spectrum on addition of DPP-IV” value in data set [3] (compound concentration 3.5 μM, FIG. 1) was “increase in the absorbance and fluorescence intensity”.

For `Nc1ccc2c(c1)Oc1cc(NC(=O)[C@@H]3CCCN3C(=O)[C@@H](N)CCC(=O)O)ccc1C21OCc2ccccc21` (stereo partly drawn) [Compound 2], in data set [4], the “Fluorescence intensity in tumor areas with DPP-IV inhibitor” value is “increase in fluorescence intensity was not seen in tumor areas”.

In data set [1], “hydroxymethyl rhodamine green [HMRG, reference compound]” yielded a Fluorescence quantum yield of 0.81, a Maximum absorption wavelength of 501 nm, a Maximum fluorescence wavelength of 524 nm and a pKcycl of 8.1. Besides, the “Molar extinction coefficient at pH 7.4” value in data set [1] is listed as 57,000 M^−1cm^−1.
